According to patent US20140271657A1, “COMBINATORIAL COMPOSITIONS AND METHODS OF TREATING HEMOGLOBINOPATHIES” (CHILDREN'S MEDICAL CENTER CORPORATION, priority 2011, published 2014):

Experiments:
HDAC = details: cited from earlier work; for concentration at which HDAC is inhibited: in vitro or in vivo, literature
human γ-globin genes = assay: Expression of human γ-globin genes monitored by qRT-PCR in β-YAC mice before and after drug treatment; type: in vivo, mouse
Source text: The wild-type β-globin locus transgenic (β-YAC) mouse strain was kindly provided by K. Peterson and was created with the insertion of a 213 kb YAC containing the entire human β-globin locus (30). This β-YAC line contains three intact copies of the human β-globin locus integrated at a single genomic locus. The A20 β-YAC line harboring a single copy of a 150 kb β-globin locus YAC was kindly provided by K. Gaensler and M. Groudine (31). These transgenes were maintained in the hemizygous state. C57BL/6 mice containing a Bcl11a floxed allele (with loxP sites flanking exon 1) were created through gene targeting approaches (G.C.I. et al, in preparation). To obtain the Bcl11a conditional knockout mice, the Bcl11a^fl/fl mice were crossed with various Cre strains, including EpoR-GFP Cre knock-in mice (13), Vav-Cre (32) and Mx1-Cre (33) transgenic mice. The humanized mouse model of sickle cell anemia that expresses exclusively human sickle hemoglobin (HbS) was obtained from The Jackson Laboratory and has been described and characterized previously (19). These mice contain the human sickle transgene [Tg(Hu-miniLCRα1^Gγ^Aγδβ^S)Hba^0//Hba^0Hbb^0//Hbb^0] and knockout of both the murine α- and β-globin genes (hereafter called SCD mice). The human sickle transgene were created by three DNA fragments consisting of a 6.5-kb mini-LCR, a 1.5-kb Pst I fragment containing the human α1-globin gene, and a 39-kb Kpn I fragment containing the human ^Gγ, ^Aγ, δ, and β^S globin genes in their normal genomic context (19). No significant difference in globin gene expression and SCD phenotypes were observed between mice that are knockout of one copy or both copies of murine α-globin genes. To generate BCL11A knockout SCD mice, the inventors introduced the EpoR-Cre and Bcl11a^fl/fi alleles into the SCD transgenic knockout mice (hereafter called SCD/Bcl11a^−/− mice). Mice containing both the human sickle transgene and at least one copy of murine β-globin gene were used as controls. PolyI:ployC (pIpC, SIGMA®) was prepared at 2 mg/ml in PBS and administrated via intraperitoneal (i.p.) injection daily at a dose of 25 μg/kg for 7 days. […]
FACS-sorted CD71^+Ter1 19^+ erythroid cells was isolated from bone marrows of 6-week old mice. […] Model-based expression value of probe sets were calculated by dChip from raw AFFYMETRIX® CEL files, and QQ-normalization was then applied to normalize the expression value distribution among multiple arrays (41). […] For quantitative RT-PCR analysis, RNA was extracted using a QIAamp® RNA Blood Mini Kit or an RNeasy® Plus Mini Kit (QIAGEN®). Quantified RNA was reverse-transcribed using an iScript cDNA Synthesis Kit (BIO-RAD®). cDNA samples were analyzed in triplicate with the iQ™ SYBR® Green Supermix using the iCycler Real-Time PCR Detection System (BIO-RAD®). […]

acetyl-H3 (H3ac) = assay: Western blot of acetyl-H3 (H3ac) in whole-cell extracts of bone marrow cells of treated mice; type: in vivo, mouse; details: after SAHA treatment, control and Bcl11a−/− (EpoR-Cre+) mice
Source text: (§1) The wild-type β-globin locus transgenic (β-YAC) mouse strain was kindly provided by K. Peterson and was created with the insertion of a 213 kb YAC containing the entire human β-globin locus (30). This β-YAC line contains three intact copies of the human β-globin locus integrated at a single genomic locus. The A20 β-YAC line harboring a single copy of a 150 kb β-globin locus YAC was kindly provided by K. Gaensler and M. Groudine (31). These transgenes were maintained in the hemizygous state. C57BL/6 mice containing a Bcl11a floxed allele (with loxP sites flanking exon 1) were created through gene targeting approaches (G.C.I. et al, in preparation). To obtain the Bcl11a conditional knockout mice, the Bcl11a^fl/fl mice were crossed with various Cre strains, including EpoR-GFP Cre knock-in mice (13), Vav-Cre (32) and Mx1-Cre (33) transgenic mice. The humanized mouse model of sickle cell anemia that expresses exclusively human sickle hemoglobin (HbS) was obtained from The Jackson Laboratory and has been described and characterized previously (19). […]
Expression of BCL11A was assessed using antibody 14B5 and 15E3AC11 (Abcam Inc.), as described previously (9). […] GAPDH (sc-25778, Santa Cruz Biotechnology Inc.) was analyzed as a loading control.

[1] = system: acetyl-H3 within γ-promoter regions; assay: ChIP of chromatin acetyl-H3 within human globin loci in CD71+Ter119+ BM cells of treated β-YAC mice; type: in vivo, mouse; details: after SAHA treatment
Source text: as §1
ChIP was performed as previously described (10). […] Precipitated DNA samples were quantified using primers designed to amplify several control regions within the human β-globin locus as indicated below the graph. […]

Question: For `C=C[C@@H](O)[C@@H]1O[C@H]1/C=C/[C@@H]1O[C@@H]1[C@@H](C)O` [depudecin], which “concentration at which HDAC is inhibited” value (HDAC) is on record?
Answer: micromolar concentrations

Question: What does the source list for `Nc1ncn([C@H]2C[C@H](O)[C@@H](CO)O2)c(=O)n1` [5-azaD, 5-aza-2′-deoxycytidine]?
Answer: interaction of 5-azaD treatment with BCL11A loss on γ-globin mRNA (human γ-globin genes; Bcl11a−/− (EpoR-Cre+) vs control β-YAC mice, 5 mg/kg daily for 5 days i.p., 5 mg/kg): unexpectedly synergistic; γ-globin mRNA (human γ-globin genes; Bcl11a−/− (EpoR-Cre+) β-YAC mice, 5-azaD 5 mg/kg daily for 5 days i.p.): 37.9%; change in γ-globin mRNA (human γ-globin genes; normal (control, Bcl11a+/+) β-YAC mice, 5-azaD 5 mg/kg daily for 5 days i.p.): very small increment

Question: With `C/C=C1\NC(=O)[C@H]2CSSCC/C=C/[C@H](CC(=O)N[C@H](C(C)C)C(=O)N2)OC(=O)[C@H](C(C)C)NC1=O` [FR901228] as the molecule, how does the “concentration at which HDAC is inhibited” value (HDAC) read?
Answer: micromolar concentrations

Question: Which “concentration at which HDAC is inhibited” value (HDAC) does the source give for `CCC(=O)CCCCC[C@@H]1NC(=O)[C@H]2CCCCN2C(=O)[C@H]([C@@H](C)CC)NC(=O)[C@H](Cc2cn(OC)c3ccccc23)NC1=O` [Apicidin] here?
Answer: nanomolar concentrations

Question: Which “inhibition of mammalian HDAC” value (HDAC; literature (Yoshida et al. 1990)) does the source give for trichostatin A [TSA] here?
Answer: potent inhibitor

Question: With `O=C(CCCCCCC(=O)Nc1ccccc1)NO` [SAHA, suberoylanilide hydroxamic acid] as the molecule, how does the “level of histone H3 acetylation in bone marrow cells” value (acetyl-H3 (H3ac)) read?
Answer: elevated

Question: What about the “level of histone H3 acetylation within γ-promoter regions” value [1] of the same molecule?
Answer: elevated

Question: And the “interaction of SAHA with BCL11A loss in derepression of γ-globin mRNA” value (human γ-globin genes; Bcl11a−/− (EpoR-Cre+) vs control β-YAC mice, 25 mg/kg daily i.p. for up to three weeks)?
Answer: synergized

Question: For `O=C(/C=C/c1cccc(C(=O)NO)c1)NO` [CBHA, m-carboxy-cinnamic acid bishydroxamic acid], which “concentration at which HDAC is inhibited” value (HDAC) is on record?
Answer: micromolar concentration or lower
